The values that follow come from patent US12209102B2, “Heterocyclic compounds and uses thereof” (Kumquat Biosciences Inc., priority 2022, dated 2025).

In assay [1] the target is T1, K-Ras G12D (Homo sapiens, UniProt P01116, G12D).
T1 construct: made in house; host or cells: E. coli BL21 (DE3)
The assay can be described thus: HTRF resonance energy transfer assay, K-Ras G12D / SOS1 interaction. Type of assay: biochemical. The settings on record: HTRF assay of Example 5; read-out: IC50 against K-Ras G12D. The gist of the method: (§1)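 Compounds, tested in duplicate at 10 μM down to 0.01 μM, were read after about 10 min or more by HTRF as the 665/620 nm emission ratio (337 nm excitation) to derive IC50. This ratio reports FRET between an anti-GST-Eu donor on GST-K-Ras (wild-type or mutant) and an anti-6His-XL665 acceptor on His-hSOS1. Buffer: ~5 mM HEPES pH 7.4, 150 mM NaCl, 1 mM DTT, 0.05% BSA, 0.0025% Igepal.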
(TR-FRET usually uses a lanthanide donor and a delayed reading to cut background.)

The target in assay [2] is T2, K-Ras G12S (Homo sapiens, UniProt P01116, G12S).
T2 construct: made in house; host or cells: E. coli BL21 (DE3)
T2 sequence (P01116 1-188 isoform P01116-2 G12S): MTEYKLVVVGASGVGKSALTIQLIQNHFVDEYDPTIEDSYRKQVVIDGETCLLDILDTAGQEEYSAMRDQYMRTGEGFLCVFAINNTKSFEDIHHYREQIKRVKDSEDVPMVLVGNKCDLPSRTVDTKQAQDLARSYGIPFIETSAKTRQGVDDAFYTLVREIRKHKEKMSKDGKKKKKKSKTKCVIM
The assay can be described thus: HTRF resonance energy transfer assay, K-Ras G12S / SOS1 interaction. The class given is biochemical. The settings on record: HTRF assay of Example 5; read-out: IC50 against K-Ras G12S. The gist of the method:
as §1

Assay [3] deals with T3, K-Ras G12V (Homo sapiens, UniProt P01116, G12V).
T3 construct: made in house; host or cells: E. coli BL21 (DE3)
T3 sequence (P01116 1-188 isoform P01116-2 G12V): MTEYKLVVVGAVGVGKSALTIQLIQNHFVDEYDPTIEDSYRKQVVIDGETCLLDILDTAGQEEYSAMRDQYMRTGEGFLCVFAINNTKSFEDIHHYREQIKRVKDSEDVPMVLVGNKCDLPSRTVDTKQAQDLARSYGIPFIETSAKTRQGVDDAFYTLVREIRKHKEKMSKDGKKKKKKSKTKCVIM
The assay can be described thus: HTRF resonance energy transfer assay, K-Ras G12V / SOS1 interaction. The class given is biochemical. The following applies: HTRF assay of Example 5; read-out: IC50 against K-Ras G12V. The gist of the method: as §1

Assay [4] has as its target T4, K-Ras WT (Homo sapiens, UniProt P01116).
T4 construct: made in house; host or cells: E. coli BL21 (DE3)
The assay can be described thus: HTRF resonance energy transfer assay, K-Ras WT / SOS1 interaction. Type of assay: biochemical. The following applies: HTRF assay of Example 5; read-out: IC50 against K-Ras WT. In outline:
as §1

Assay [5] relates to GP2D cells. Kind of assay: Ras cellular assay, growth of cells with K-Ras G12D mutation (CellTiter-Glo). Type of assay: cell-based. The following applies: cell growth, Example 9, G12D mutation, read-out: IC50 against GP2D cells.
The subject of assay [6] is A549 cells. Kind of assay: Ras cellular assay, growth of cells with K-Ras G12S mutation (CellTiter-Glo). Type of assay: cell-based. The settings on record: Homo sapiens, cell growth, Example 9, G12S mutation, read-out: IC50 against A549 cells. The gist of the method:
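Growth inhibition IC50 values come from four-parameter fits of CellTiter-Glo luminescence, read about 6 days after compound addition. G12S-mutant A549 cells (e.g. 800/well, RPMI-1640 + 10% heat-inactivated FBS) were plated in tissue-culture-treated or ultra-low-attachment 384-well format. Dosing began the following day with serial dilutions, e.g. 10 points, 3-fold.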
(ATP-based viability assays read luminescence as a measure of living cells.)

Assay [7] has as its system SW620 cells. Kind of assay: Ras cellular assay, growth of cells with K-Ras G12V mutation (CellTiter-Glo). The following applies: Homo sapiens, SW-620; cell growth, Example 9, G12V mutation; read-out: IC50 against SW620 cells. Type of assay: cell-based. The gist of the method:
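IC50 values came from a four-parameter fit of CellTiter-Glo viability, read roughly 6 days after dosing with e.g. a 10-point threefold dilution series. G12V-mutant SW620 cells (e.g. 800 per well) had been plated the previous day in RPMI-1640/10% heat-inactivated FBS, on tissue culture-treated or ultra-low attachment plates.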

Molecules are shown by their SMILES.

T1 sequence (P01116 1-188 isoform P01116-2 G12D): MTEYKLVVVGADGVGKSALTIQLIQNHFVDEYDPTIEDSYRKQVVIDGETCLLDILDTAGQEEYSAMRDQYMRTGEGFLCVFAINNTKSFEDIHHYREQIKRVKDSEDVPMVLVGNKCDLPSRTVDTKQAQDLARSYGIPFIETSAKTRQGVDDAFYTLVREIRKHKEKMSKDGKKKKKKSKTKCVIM
T4 sequence (P01116 1-188 isoform P01116-2): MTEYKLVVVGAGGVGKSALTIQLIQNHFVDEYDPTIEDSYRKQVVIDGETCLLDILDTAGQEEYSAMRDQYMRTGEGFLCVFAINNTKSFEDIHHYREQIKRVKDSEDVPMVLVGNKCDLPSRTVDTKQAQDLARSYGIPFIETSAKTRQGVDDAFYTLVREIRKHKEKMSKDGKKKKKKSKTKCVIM

Usually IC50 stands for the concentration needed to halve the response being measured. For the compound `C[C@H]1CN(CCC(F)F)c2nc(OC[C@@]34CCCN3C[C@H](F)C4)nc3c(F)c(-c4ccc(F)c5sc(N)c(C#N)c45)c(Cl)c(c23)O1` [Compound 664, 2-amino-4-((6S)-8-chloro-4-(3,3-difluoropropyl)-10-fluoro-2-(((2R,7aS)-2-fluorotetrahydro-1H-pyrrolizin-7a(5H)-yl)methoxy)-6-methyl-5,6-dihydro-4H-[1,4]oxazepino[5,6,7-de]quinazolin-9-yl)-7-fluorobenzo[b]thiophene-3-carbonitrile], the IC50 is under 100 nM in assay [1]; under 100 nM in assay [2]; under 100 nM in assay [3]; under 100 nM in assay [4]; under 500 nM in assay [5]; under 5000 nM in assay [6]. In addition, the IC50 in assay [7] is under 5000 nM.
Take `C[C@H]1CN(C2CCN(C(=O)C(F)F)C2)c2nc(OC[C@@]34CCCN3C[C@H](F)C4)nc3c(F)c(-c4ccc(F)c5sc(N)c(C#N)c45)c(Cl)c(c23)O1` (stereo partly drawn) [Compound 665, 2-amino-4-((6S)-8-chloro-4-(1-(2,2-difluoroacetyl)pyrrolidin-3-yl)-10-fluoro-2-(((2R,7aS)-2-fluorotetrahydro-1H-pyrrolizin-7a(5H)-yl)methoxy)-6-methyl-5,6-dihydro-4H-[1,4]oxazepino[5,6,7-de]quinazolin-9-yl)-7-fluorobenzo[b]thiophene-3-carbonitrile]: the IC50 is under 100 nM in assay [1]; under 100 nM in assay [2]; under 100 nM in assay [3]; under 100 nM in assay [4]; under 500 nM in assay [5]; under 5000 nM in assay [6]. Besides, in assay [7], the IC50 is under 5000 nM.
Regarding `N#Cc1c(N)sc2c(F)ccc(-c3c(Cl)c4c5c(nc(OC[C@@]67CCCN6C[C@H](F)C7)nc5c3F)N(CC3(O)CCC3)CCO4)c12` [Compound 667, 2-amino-4-(8-chloro-10-fluoro-2-(((2R,7aS)-2-fluorotetrahydro-1H-pyrrolizin-7a(5H)-yl)methoxy)-4-((1-hydroxycyclobutyl)methyl)-5,6-dihydro-4H-[1,4]oxazepino[5,6,7-de]quinazolin-9-yl)-7-fluorobenzo[b]thiophene-3-carbonitrile], the IC50 in assay [1] is under 100 nM; in assay [2], under 100 nM; in assay [3], under 100 nM; in assay [4] it was under 100 nM; in assay [5] it was under 500 nM; in assay [6] it was under 5000 nM. The IC50 in assay [7] is under 5000 nM.
`COCC(C)N1CCOc2c(Cl)c(-c3ccc(F)c4sc(N)c(C#N)c34)c(F)c3nc(OC[C@@]45CCCN4C[C@H](F)C5)nc1c23` (stereo partly drawn) [Compound 670, 2-amino-4-(8-chloro-10-fluoro-2-(((2R,7aS)-2-fluorotetrahydro-1H-pyrrolizin-7a(5H)-yl)methoxy)-4-(1-methoxypropan-2-yl)-5,6-dihydro-4H-[1,4]oxazepino[5,6,7-de]quinazolin-9-yl)-7-fluorobenzo[b]thiophene-3-carbonitrile]: the IC50 in assay [1] is under 100 nM; in assay [2], under 100 nM; in assay [3], under 100 nM; in assay [4], under 100 nM; in assay [5], under 500 nM; in assay [6], under 5000 nM. Moreover, the IC50 in assay [7] was under 5000 nM.
In the case of `N#Cc1c(N)sc2c(F)ccc(-c3c(Cl)c4c5c(nc(OC[C@@]67CCCN6C[C@H](F)C7)nc5c3F)N(C3CCOC3)CC(CO)O4)c12` (stereo partly drawn) [Compound 681, 2-amino-4-(8-chloro-10-fluoro-2-(((2R,7aS)-2-fluorotetrahydro-1H-pyrrolizin-7a(5H)-yl)methoxy)-6-(hydroxymethyl)-4-(tetrahydrofuran-3-yl)-5,6-dihydro-4H-[1,4]oxazepino[5,6,7-de]quinazolin-9-yl)-7-fluorobenzo[b]thiophene-3-carbonitrile], the IC50 in assay [1] was under 100 nM; in assay [2], under 100 nM; in assay [3], under 100 nM; in assay [4], under 100 nM; in assay [5] it was under 500 nM; in assay [6] it was under 5000 nM. The concentration for half-maximal inhibition (IC50) in assay [7] was under 5000 nM.
Take `N#Cc1c(N)sc2c(F)ccc(-c3c(Cl)c4c5c(nc(OC[C@@]67CCCN6C[C@H](F)C7)nc5c3F)N(C3CCOC3)CCO4)c12` (stereo partly drawn) [Compound 688, 2-amino-4-(8-chloro-10-fluoro-2-(((2R,7aS)-2-fluorotetrahydro-1H-pyrrolizin-7a(5H)-yl)methoxy)-4-(tetrahydrofuran-3-yl)-5,6-dihydro-4H-[1,4]oxazepino[5,6,7-de]quinazolin-9-yl)-7-fluorobenzo[b]thiophene-3-carbonitrile]: the IC50 is under 100 nM in assay [1]; under 100 nM in assay [2]; under 100 nM in assay [3]; under 100 nM in assay [4]; under 500 nM in assay [5]; under 5000 nM in assay [6]. In assay [7], the IC50 was under 5000 nM.
For the compound `N#Cc1c(N)sc2c(F)ccc(-c3c(Cl)c4c5c(nc(OC[C@@]67CCCN6C[C@H](F)C7)nc5c3F)N(C3CC5(CCN(C=O)C5)C3)CCO4)c12` (stereo partly drawn) [Compound 698, 2-amino-4-(8-chloro-10-fluoro-2-(((2R,7aS)-2-fluorotetrahydro-1H-pyrrolizin-7a(5H)-yl)methoxy)-4-(6-formyl-6-azaspiro[3.4]octan-2-yl)-5,6-dihydro-4H-[1,4]oxazepino[5,6,7-de]quinazolin-9-yl)-7-fluorobenzo[b]thiophene-3-carbonitrile], the IC50 is under 100 nM in assay [1]; under 100 nM in assay [2]; under 100 nM in assay [3]; under 100 nM in assay [4]; under 500 nM in assay [5]; under 5000 nM in assay [6]. Besides, in assay [7], the IC50 was under 5000 nM.
For the compound `N#Cc1c(N)sc2c(F)ccc(-c3c(Cl)c4c5c(nc(OC[C@@]67CCCN6C[C@H](F)C7)nc5c3F)N(C3CCN(C(=O)C[C@@H]5CCOC5)C3)CCO4)c12` (stereo partly drawn) [Compound 699, 2-amino-4-(8-chloro-10-fluoro-2-(((2R,7aS)-2-fluorotetrahydro-1H-pyrrolizin-7a(5H)-yl)methoxy)-4-(1-(2-((S)-tetrahydrofuran-3-yl)acetyl)pyrrolidin-3-yl)-5,6-dihydro-4H-[1,4]oxazepino[5,6,7-de]quinazolin-9-yl)-7-fluorobenzo[b]thiophene-3-carbonitrile], the IC50 was under 100 nM in assay [1]; under 100 nM in assay [2]; under 100 nM in assay [3]; under 100 nM in assay [4]; under 500 nM in assay [5]; under 5000 nM in assay [6]. The IC50 in assay [7] is under 5000 nM.
For `N#CCC1COc2c(Cl)c(-c3ccc(F)c4sc(N)c(C#N)c34)c(F)c3nc(OC[C@@]45CCCN4C[C@H](F)C5)nc(c23)N1CC(F)F` (stereo partly drawn) [Compound 700, 2-amino-4-(8-chloro-5-(cyanomethyl)-4-(2,2-difluoroethyl)-10-fluoro-2-(((2R,7aS)-2-fluorotetrahydro-1H-pyrrolizin-7a(5H)-yl)methoxy)-5,6-dihydro-4H-[1,4]oxazepino[5,6,7-de]quinazolin-9-yl)-7-fluorobenzo[b]thiophene-3-carbonitrile], the IC50 in assay [1] is under 100 nM; in assay [2] it was under 100 nM; in assay [3], under 100 nM; in assay [4], under 100 nM; in assay [5], under 500 nM; in assay [6], under 5000 nM. Besides, the IC50 in assay [7] is under 5000 nM.
For the compound `N#Cc1c(N)sc2c(F)ccc(-c3c(Cl)c4c5c(nc(OC[C@@]67CCCN6C[C@H](F)C7)nc5c3F)N(CC(F)F)C(CC(F)F)CO4)c12` (stereo partly drawn) [Compound 701, 2-amino-4-(8-chloro-4,5-bis(2,2-difluoroethyl)-10-fluoro-2-(((2R,7aS)-2-fluorotetrahydro-1H-pyrrolizin-7a(5H)-yl)methoxy)-5,6-dihydro-4H-[1,4]oxazepino[5,6,7-de]quinazolin-9-yl)-7-fluorobenzo[b]thiophene-3-carbonitrile], the IC50 in assay [1] was under 100 nM; in assay [2], under 100 nM; in assay [3], under 100 nM; in assay [4], under 100 nM; in assay [5], under 500 nM; in assay [6], under 5000 nM. Further, the IC50 in assay [7] is under 5000 nM.
